The source of these data is publication PMC7494652 (Bioorganic & medicinal chemistry letters, 2020).

A short description of series [1]: Solubility in sodium phosphate buffer. The class given is physicochemical.
Series [2] deals with T1, human sEH (Homo sapiens, UniProt P34913).
T1 sequence (P34913 1-555): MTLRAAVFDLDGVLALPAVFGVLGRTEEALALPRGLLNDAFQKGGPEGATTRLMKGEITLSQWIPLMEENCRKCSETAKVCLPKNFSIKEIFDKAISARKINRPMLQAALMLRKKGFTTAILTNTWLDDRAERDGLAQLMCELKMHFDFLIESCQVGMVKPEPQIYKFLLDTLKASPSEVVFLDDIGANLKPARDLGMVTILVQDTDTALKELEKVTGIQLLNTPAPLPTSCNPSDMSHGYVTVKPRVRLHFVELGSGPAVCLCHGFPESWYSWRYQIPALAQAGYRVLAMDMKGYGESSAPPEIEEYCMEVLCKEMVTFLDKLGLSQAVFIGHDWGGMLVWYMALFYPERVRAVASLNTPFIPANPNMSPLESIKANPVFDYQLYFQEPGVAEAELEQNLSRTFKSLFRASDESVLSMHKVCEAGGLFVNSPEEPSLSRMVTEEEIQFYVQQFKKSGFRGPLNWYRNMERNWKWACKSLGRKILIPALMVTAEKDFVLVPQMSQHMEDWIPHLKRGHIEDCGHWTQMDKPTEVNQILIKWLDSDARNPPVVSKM
Put plainly: Inhibition of human sEH, kinetic fluorescent assay.

The conditions of series [3]: cited from earlier work.

The structures appear in SMILES notation. Like-named read-outs stand apart in the source and are kept apart here.

In series [1] (pH 7.4, aqueous buffer), `CC1(C)[C@H]2CC[C@]1(C)C(NC(=O)Nc1ccccc1F)C2` (mixture of isomers) [(S)-2b] returned a solubility of 225 ± 25 µM.

Turning to `O=C(NC1CC2C=CC1C2)N[C@H]1CC[C@H](Oc2ccc(C(=O)O)cc2)CC1` (some centres unmarked) [1a], in series [1] (sodium phosphate buffer), the “Fold more soluble than t-AUCB” value came to 2 fold and the “Solubility compared with t-TUCB” value was “significantly more soluble”. For `O=C(NCCCCCCCCNC(=O)NCc1ccco1)NCc1ccco1` [5i], the IC50 in series [2] stood at 214 nM. As to `O=C(Nc1ccc(OC(F)(F)F)cc1)N[C@H]1CC[C@H](Oc2ccc(C(=O)O)cc2)CC1` [t-TUCB], in series [3], the solubility is 5[19] μM.

Broadly, the solubility is the dissolved amount per volume that the medium holds. A word on the IC50: it is the concentration that gives 50% inhibition. Read a low IC50 as inhibition by little substance.
